Measured values taken from PubChem BioAssay AID1259411 (Chemical Carcinogenesis Research Information System (CCRIS), 2018).
The source made the active and inactive calls. The rule behind the calls is not given here.

Tested on: rodent carcinogenicity bioassays, tumor incidence
Experiment: CCRIS carcinogenicity studies
Settings: Dose: 0
Method in brief: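 Archive of carcinogenicity, mutagenicity, tumor promotion and tumor inhibition results drawn from journals, NCI reports and other sources, expert-reviewed; covers 1985-2011 and is no longer updated.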

With `O[C@@H]1[C@@H]2O[C@@H]2c2c(ccc3cc4ccc5ccccc5c4nc23)[C@H]1O` the carcinogen call (Species: MOUSE, Strain/Sex: CD-1/FEMALE, Route: INTRAPERITONEAL, 28 NMOL (TOTAL DOSE) ADMINISTERED AS 1/7 OF DOSE WITHIN 24 HR AFTER BIRTH, 2/7 OF DOSE AT 8 D OLD, 4/7 OF DOSE AT 15, Tumor Site: Type of Lesion: LUNG: TUMOR) was “active; positive”, the carcinogen call (Species: MOUSE, Strain/Sex: CD-1/FEMALE, Route: INTRAPERITONEAL, 70, 175 NMOL (TOTAL DOSE) ADMINISTERED AS 1/7 OF DOSE WITHIN 24 HR AFTER BIRTH, 2/7 OF DOSE AT 8 D OLD, 4/7 OF DOSE A, 70, 175 NMOL (TOTAL DOSE) ADMINISTERED AS 1/7 OF DOSE WITHIN 24 HR AFTER BIRTH, 2/7 OF DOSE AT 8 D OLD, 4/7 OF DOSE A, Tumor Site: Type of Lesion: LIVER: TUMOR, LUNG: TUMOR) was “active; positive” and the carcinogen call (Species: MOUSE, Strain/Sex: CD-1/MALE, Route: INTRAPERITONEAL, 28 NMOL (TOTAL DOSE) ADMINISTERED AS 1/7 OF DOSE WITHIN 24 HR AFTER BIRTH, 2/7 OF DOSE AT 8 D OLD, 4/7 OF DOSE AT 15, Tumor Site: Type of Lesion: LIVER: TUMOR, LUNG: TUMOR) was “active; positive”. For the same molecule, the carcinogen call (Species: MOUSE, Strain/Sex: CD-1/MALE, Route: INTRAPERITONEAL, 70, 175 NMOL (TOTAL DOSE) ADMINISTERED AS 1/7 OF DOSE WITHIN 24 HR AFTER BIRTH, 2/7 OF DOSE AT 8 D OLD, 4/7 OF DOSE A, 70, 175 NMOL (TOTAL DOSE) ADMINISTERED AS 1/7 OF DOSE WITHIN 24 HR AFTER BIRTH, 2/7 OF DOSE AT 8 D OLD, 4/7 OF DOSE A, Tumor Site: Type of Lesion: LIVER: TUMOR, LUNG: TUMOR) was “active; positive”.
`Cc1c(COC(=O)[C@@H]2[C@H](/C=C(\Cl)C(F)(F)F)C2(C)C)cccc1-c1ccccc1` was tested, and the carcinogen call (Species: Mouse, Strain/Sex: Swiss-Webster Derived Tac(SW)fBR/Female (50/sex/group), Route: Oral, 50, 200, 500, 600 ppm in feed for 20-21 months, 50, 200, 500, 600 ppm in feed for 20-21 months) was “inactive; negative; purity 88.35% (98% cis- and 2% trans-isomer)”, the carcinogen call (Species: Mouse, Strain/Sex: Swiss-Webster Derived Tac(SW)fBR/Male (50/sex/group), Route: Oral, 50, 200, 500, 600 ppm in feed for 20-21 months, 50, 200, 500, 600 ppm in feed for 20-21 months, Tumor Site: Type of Lesion: Urinary bladder: Leiomyosarcoma (Dose related increase, 29% at 600 ppm)) was “active; positive; purity 88.35% (98% cis- and 2% trans-isomer)” and the carcinogen call (Species: Rat, Strain/Sex: Sprague-Dawley/Female (50/sex/group), Route: Oral, 12, 50, 100, 200 ppm in feed for 2 yr, 12, 50, 100, 200 ppm in feed for 2 yr) was “inactive; negative; purity 88.35% (98% cis- and 2% trans-isomer)”. The carcinogen call (Species: Rat, Strain/Sex: Sprague-Dawley/Male (60/group), Route: Oral, 12, 50, 100, 200 ppm in feed for 2 yr, 12, 50, 100, 200 ppm in feed for 2 yr) was “inactive; negative; purity 88.35% (98% cis- and 2% trans-isomer)”.
`CN(N=O)C1CCCCC1` was tested, and the carcinogen call (Species: HAMSTER, Strain/Sex: SYRIAN/FEMALE, Route: GAVAGE, 2.5 MG/KG 1/WK FOR 50 WK (TOTAL DOSE: 0; 0.9 MMOL) (STUDY DURATION: LIFETIME), 2.5 MG/KG 1/WK FOR 50 WK (TOTAL DOSE: 0; 0.9 MMOL) (STUDY DURATION: LIFETIME)) was “inactive; negative” and the carcinogen call (Species: HAMSTER, Strain/Sex: SYRIAN/MALE, Route: GAVAGE, 2.5 MG/KG 1/WK FOR 50 WK (TOTAL DOSE: 0; 0.9 MMOL) (STUDY DURATION: LIFETIME), 2.5 MG/KG 1/WK FOR 50 WK (TOTAL DOSE: 0; 0.9 MMOL) (STUDY DURATION: LIFETIME), Tumor Site: Type of Lesion: LUNG: ALVEOLAR/BRONCHIAL ADENOMA, ADENOSQUAMOUS CARCINOMA) was “active; positive”.
With `CCOP(=S)(OCC)Oc1nc(Cl)c(Cl)cc1Cl` the carcinogen call (Species: Mouse, Strain/Sex: CD-1/Female (59/group), Route: Oral, 5, 50, 250 ppm in diet for 79 wk, 5, 50, 250 ppm in diet for 79 wk) was “inactive; negative (study details not given in source; purity 99.6%)”, the carcinogen call (Species: Mouse, Strain/Sex: CD-1/Male (59/group), Route: Oral, 5, 50, 250 ppm in diet for 79 wk, 5, 50, 250 ppm in diet for 79 wk) was “inactive; negative (study details not given in source; purity 99.6%)” and the carcinogen call (Species: RAT, Strain/Sex: F344/FEMALE, Route: ORAL, 0.05, 0.1, 1, 10 MG/KG BW/D IN DIET FOR 104 WK (STUDY DURATION: 104 WK), 0.05, 0.1, 1, 10 MG/KG BW/D IN DIET FOR 104 WK (STUDY DURATION: 104 WK)) was “inactive; negative”. For the same molecule, the carcinogen call (Species: RAT, Strain/Sex: F344/MALE, Route: ORAL, 0.05, 0.1, 1, 10 MG/KG BW/D IN DIET FOR 104 WK (STUDY DURATION: 104 WK), 0.05, 0.1, 1, 10 MG/KG BW/D IN DIET FOR 104 WK (STUDY DURATION: 104 WK)) was “inactive; negative”.
In the case of `CO[C@@H]1[C@@H](O[C@@H]2O[C@H](C)[C@@H](O[C@H]3C[C@@](C)(O)[C@@H](OC(=O)CC(C)C)[C@H](C)O3)[C@H](N(C)C)[C@H]2O)[C@@H](CC=O)C[C@@H](C)[C@@H](O)/C=C/C=C/C[C@@H](C)OC(=O)C[C@H]1OC(C)=O`, the carcinogen call (Species: RAT, Strain/Sex: F344/FEMALE, Route: ORAL, 1.25, 2.5% IN DIET FOR 104 WK (STUDY DURATION: 106 WK), 1.25, 2.5% IN DIET FOR 104 WK (STUDY DURATION: 106 WK)) is reported as “inactive; negative” and the carcinogen call (Species: RAT, Strain/Sex: F344/MALE, Route: ORAL, 1.25, 2.5% IN DIET FOR 104 WK (STUDY DURATION: 106 WK)) is reported as “inactive; negative”.
With `CC(C)OC(=O)Nc1cccc(Cl)c1` the carcinogen call (Species: Mouse, Strain/Sex: CD-1/Female (50/group), Route: Oral, 100, 500, 1,000 mg/kg/day in diet for 18 mo, 100, 500, 1,000 mg/kg/day in diet for 18 mo) was “inactive; negative (study details not given in source; purity 96.2%)”, the carcinogen call (Species: Mouse, Strain/Sex: CD-1/Male (50/group), Route: Oral, 100, 500, 1,000 mg/kg/day in diet for 18 mo, 100, 500, 1,000 mg/kg/day in diet for 18 mo) was “inactive; negative (study details not given in source; purity 96.2%)” and the carcinogen call (Species: Rat, Strain/Sex: Sprague-Dawley/Female (50/group), Route: Oral, 30, 100, 500, 1,000 mg/kg/day in diet for 24 mo, 30, 100, 500, 1,000 mg/kg/day in diet for 24 mo) was “inactive; negative (study details not given in source; purity 96.2%)”. The carcinogen call (Species: Rat, Strain/Sex: Sprague-Dawley/Male (50/group), Route: Oral, 30, 100, 500, 1,000 mg/kg/day in diet for 24 mo, 30, 100, 500, 1,000 mg/kg/day in diet for 24 mo, Tumor Site: Type of Lesion: Testis: Interstitial cell tumors (1, 4, 2, 4, 9; Significant at highest dose)) was “active; positive (study details not given in source; purity 96.2%)”.
`C=C(C)c1ccccc1` was tested, and the carcinogen call (Species: Mouse, Strain/Sex: B6C3F1/Female (50/group), Route: Inhalation, 100, 300, 600 ppm for 6 hr/d, 5 d/wk, except holidays, for 105 wk, 100, 300, 600 ppm for 6 hr/d, 5 d/wk, except holidays, for 105 wk, Tumor Site: Type of Lesion: Liver: hepatocelllular carcinoma (3/50, 9/50, 6/50, 18/50), hepatocellular adenoma and carcinoma combined (13/50, 26/50) was “active; positive (ntp reports as clear evidence)”, the carcinogen call (Species: Mouse, Strain/Sex: B6C3F1/Male (50/group), Route: Inhalation, 100, 300, 600 ppm for 6 hr/d, 5 d/wk, except holidays, for 105 wk, 100, 300, 600 ppm for 6 hr/d, 5 d/wk, except holidays, for 105 wk, Tumor Site: Type of Lesion: Liver: hepatocellular adenoma and carcinoma combined (28/50, 36/50, 33/50, 37/50 (considered equivocal))) was “inactive; negative; p value not significant (ntp reports as equivocal evidence)” and the carcinogen call (Species: Rat, Strain/Sex: F344/N / Female (50/group), Route: Inhalation, 100, 300, 1000 ppm for 6 hr/d, 5 d/wk, except holidays, for 105 wk, 100, 300, 1000 ppm for 6 hr/d, 5 d/wk, except holidays, for 105 wk) was “inactive; negative”. For the same molecule, the carcinogen call (Species: Rat, Strain/Sex: F344/N / Male (50/group), Route: Inhalation, 100, 300, 1000 ppm for 6 hr/d, 5 d/wk, except holidays, for 105 wk, 100, 300, 1000 ppm for 6 hr/d, 5 d/wk, except holidays, for 105 wk, Tumor Site: Type of Lesion: Kidney: renal tubule adenoma and carcinoma combined (0/50, 0/50, 3/50, 7/50 (single and step sections)) Mononuclear cell) was “active; positive (ntp reports as some evidence)”.
For `COC(=O)C1=C(C)NC(C)=C(C(=O)OCC(C)(C)CN(C)Cc2ccccc2)C1c1cc([N+](=O)[O-])ccc1F` (stereo unspecified), the carcinogen call (Species: RAT, Strain/Sex: F344/FEMALE, Route: ORAL, 0.67, 2, 6 MG/KG/D IN DIET FOR 104 WK (STUDY DURATION: 104 WK), 0.67, 2, 6 MG/KG/D IN DIET FOR 104 WK (STUDY DURATION: 104 WK)) was “inactive; negative” and the carcinogen call (Species: RAT, Strain/Sex: F344/MALE, Route: ORAL, 0.67, 2, 6 MG/KG/D IN DIET FOR 104 WK (STUDY DURATION: 104 WK), 0.67, 2, 6 MG/KG/D IN DIET FOR 104 WK (STUDY DURATION: 104 WK)) was “inactive; negative”.
